# Measurements: patent US20250275948A1, “(N-[4-(2,3-DIHYDRO-1H-INDEN-5-YL)-1,3-THIAZOL-2-YL]-2-[4-METHYL-4-(NAPHTHALEN-2-YL)-2,5-DIOXOIMIDAZOLIDIN-1-YL]ACETAMIDE AS STABILIZER OF CLOCK:BMAL1 INTERACTION FOR THE TREATMENT OF CIRCADIAN RHYTHM DISEASES AND DISORDERS” (KOC UNIVERSITESI, priority 2022, published 2025)
# Legend:
# CLOCK:BMAL1 complex = target: T1, CLOCK:BMAL1 complex (Homo sapiens, UniProt O00327+O15516); assay: Pull-down assay with biotinylated-CLK95; assay type: binding; conditions: 20 μM bCLK95 bait, 200 μM CLK95 competitor; HEK 293T and U2OS lysates
# T1 construct: expressed in transfected cells; host or cells: HEK 293T
# Method: To perform pull-down assay HEK 293T cells were transiently transfected with either 10 μg pCMV-Sport6-CLOCK or 10 μg pCMV-Sport6-Bmal1 plasmids. First, cells were seeded in a 10 cm cell culture dish at a density which will give ˜70-80% confluency next day. Then cells were transfected with 10 μg of the appropriate plasmid using 30 μL PEI in 1 mL DMEM. Cells were harvested 24 hours post-transfection and divided into four 1.5 mL centrifuge tubes. The conditions that were employed to probe the binding of the molecule to proteins contained a) only CLOCK overexpressed, b) only BMAL1 overexpressed and c) CLOCK-BMAL1 overexpressed mixtures. Pellet for each condition was lysed with 500 μL Lysis Buffer (50 mM Tris-HCl PH 7.4, 2 mM EDTA, 1 mM MgCl2, 0.2% NP-40, 1 mM Na3VO4, 1 mM NaF, 1×PIC) and incubated on ice for 20 minutes. Then samples were centrifuged at 7000×g for 10 minutes at 4° C. The supernatants of the CLOCK and BMAL1 lysates were mixed at 1:1 ratio. Following this step, collected lysate mixture was mixed with 2× binding buffer (100 mM Tris-HCl pH 7.4, 300 mM NaCl, 0.2% NP-40, 2 mM Na3VO4, 2 mM NaF, 2×PIC) at 1:1 ratio. […]
# [1] = system: NIH 3T3 Bmal1-dLuc and U2OS Bmal1-dLuc cells; assay: Real-time monitoring of circadian oscillation; assay type: cell-based
# Method: NIH 3T3 Bmal1-dLuc and U2OS Bmal1-dLuc cells were used for real-time monitoring of circadian oscillation. While LumiCycle 32 (Actimetrics, USA) was used for recording the luminescence signals of NIH 3T3 Bmal1-dLuc cells, Synergy H1 (BioTek, USA) was used for recording the luminescence signals of U2OS Bmal1-dLuc cells. NIH 3T3 Bmal1-dLuc cells were plated in 35 mm cell culture dish at density of 45×10^4 cell/plate and incubated overnight at 37° C. under 5% CO2. The next day, cell medium was replaced with 0.1 μM Dexamethasone (Sigma D-8893) containing DMEM to synchronize the cells. After 2 hours incubation, cell media was exchanged with appropriate amount of CLK95 containing recording medium (10 g low glucose DMEM powder (Sigma D2902), 3.5 mg/mL D(+) glucose powder (Sigma G7021), 0.35 mg/mL sodium bicarbonate (Sigma S5761), 10 mM HEPES (Gibco 15630106), 5% FBS (Gibco, 16000044), 1% NEAA (Multicell 321-011-EL), 25 U/mL streptomycin-penicillin (Gibco 15140-122) which was supplemented with 0.1 mM Luciferin. Then plates were sealed with silicone grease to prevent evaporation and immediately placed in LumiCycle. This instrument continuously recorded the luminescence for each plate for 5-7 days with 10 minutes intervals at 37° C. LumiCycle Analysis software (Actimetrics) was used to analyse the changes in circadian rhythm. The data of the first day was excluded from analysis due to transient deviations caused after medium change.
# For the experiments that were performed using Synergy-H1, U2OS Bmal1-dLuc cells were plated as triplicates into an opaque 96-well plate (5×10^4 cell/well). After synchronizing and treating the cells with CLK95, opaque 96-well plate was sealed with an optically clear film and placed under Synergy-H1 instrument. Luminescence signals were recorded for 5-7 days with 24 minutes intervals at 32° C.
# [2] = system: WT, Clock knockout and Bmal1 knockout MEF cells; assay: Circadian rhythm monitoring in WT, Clock KO and Bmal1 KO MEF cells transduced with Bmal1-dLuc; assay type: cell-based, mouse; conditions: WT vs Clock KO vs Bmal1 KO MEF cells
# Method: Wild type (WT), Clock knockout (KO), and Bmal1 KO mouse embryonic fibroblast (MEF) cells were transduced with Bmal1-dLuc lentiviral particles to enable us to monitor the effect of CLK95 on circadian oscillation. To this end, virus particles were produced as follow: HEK 293T cells were transfected with 10 μg pLV6-Bmal1-dluc, 9 μg pCMV-ΔR8.2dvpr packaging and lug pCMV-VSVG envelope vectors at ˜70-80% confluency. The plasmid cocktail was mixed with 20 μL PEI in 400 μL DMEM and incubated at room temperature for 10 minutes and cells were transfected. After 16 hours of incubation at 37° C. under 5% CO2, 3 mL fresh D10 medium were added to plates. 48 hours after transfection, cell medium was replaced with 8 mL fresh D10 medium. Lentiviral particles were harvested at 72 and 96 hours post transfection. Collected particles were filtered through 0.45 μM syringe filter and aliquoted (750 μL) for storage at −80° C. for further use.
# WT, Clock KO, and Bmal1 KO MEF cells were transduced with Bmal1-dluc lentiviral particles as follow: Cells were seeded in 35 mm cell culture plates at the density of 1×10^5 cell/plate. […] 72-hours post-transduction cells were synchronized with Dexamethasone (0.1 μM) and prepared for luminescence recording of the circadian oscillation as indicated at section 3.4
# [3] = NIH3T3 Bmal1-dLuc (Lumicycle) and U2OS Bmal1-dLuc (Synergy H1) cells
# T1 sequence (O15516 whole entry): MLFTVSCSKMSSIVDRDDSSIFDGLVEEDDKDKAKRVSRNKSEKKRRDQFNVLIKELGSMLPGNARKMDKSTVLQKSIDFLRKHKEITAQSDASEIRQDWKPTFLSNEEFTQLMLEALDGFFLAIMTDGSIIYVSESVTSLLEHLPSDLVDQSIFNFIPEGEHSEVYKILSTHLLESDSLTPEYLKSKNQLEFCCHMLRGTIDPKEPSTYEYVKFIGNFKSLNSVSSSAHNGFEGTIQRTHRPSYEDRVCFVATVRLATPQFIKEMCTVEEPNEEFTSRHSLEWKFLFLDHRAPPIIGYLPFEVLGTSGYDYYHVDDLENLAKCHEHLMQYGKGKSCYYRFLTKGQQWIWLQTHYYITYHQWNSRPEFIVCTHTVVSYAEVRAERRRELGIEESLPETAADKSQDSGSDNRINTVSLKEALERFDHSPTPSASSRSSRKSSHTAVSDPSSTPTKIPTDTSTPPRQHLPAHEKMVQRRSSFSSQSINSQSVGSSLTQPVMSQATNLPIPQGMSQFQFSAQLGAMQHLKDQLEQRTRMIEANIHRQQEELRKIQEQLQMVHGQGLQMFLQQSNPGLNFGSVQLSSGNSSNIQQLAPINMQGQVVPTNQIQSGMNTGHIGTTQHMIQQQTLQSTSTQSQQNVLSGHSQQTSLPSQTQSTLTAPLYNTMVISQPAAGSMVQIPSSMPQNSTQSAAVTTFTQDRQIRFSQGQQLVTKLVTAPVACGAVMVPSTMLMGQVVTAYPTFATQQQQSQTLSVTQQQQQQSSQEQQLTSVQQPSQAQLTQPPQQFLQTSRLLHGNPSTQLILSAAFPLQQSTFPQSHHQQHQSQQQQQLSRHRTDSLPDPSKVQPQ
# T1 sequence (O00327 whole entry): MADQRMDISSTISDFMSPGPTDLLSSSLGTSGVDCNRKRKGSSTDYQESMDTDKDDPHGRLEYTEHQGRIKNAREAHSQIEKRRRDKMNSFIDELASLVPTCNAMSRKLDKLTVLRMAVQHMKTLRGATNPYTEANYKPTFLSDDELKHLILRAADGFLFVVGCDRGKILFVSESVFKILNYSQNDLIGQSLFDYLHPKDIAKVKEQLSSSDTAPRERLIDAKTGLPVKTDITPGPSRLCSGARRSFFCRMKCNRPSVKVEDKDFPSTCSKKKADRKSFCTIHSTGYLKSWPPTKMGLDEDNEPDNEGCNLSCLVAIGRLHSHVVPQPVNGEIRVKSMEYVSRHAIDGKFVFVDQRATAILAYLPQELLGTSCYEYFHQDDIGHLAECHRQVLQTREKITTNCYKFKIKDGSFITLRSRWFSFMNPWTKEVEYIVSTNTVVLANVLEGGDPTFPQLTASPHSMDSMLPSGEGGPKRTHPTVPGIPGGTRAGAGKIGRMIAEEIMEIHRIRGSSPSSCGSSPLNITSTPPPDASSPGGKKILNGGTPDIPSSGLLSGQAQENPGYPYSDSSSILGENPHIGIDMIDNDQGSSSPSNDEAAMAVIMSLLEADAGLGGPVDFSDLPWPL
smiles,measurement,setting,value
CC1(c2ccc3ccccc3c2)NC(=O)N(CC(=O)Nc2nc(-c3ccc4c(c3)CCC4)cs2)C1=O (stereo not drawn) [CLK95],binding in pull-down,CLOCK:BMAL1 complex,specifically binding to CLOCK:BMAL1 complex
same,effect on circadian rhythm,[1]; Bmal1-dLuc U2OS cells,destroying the circadian rhythm
same,effect on circadian amplitude,[1]; [3],decreases the amplitude
same,effect on circadian period,[1]; [3],increases the period
same,effect of higher doses on endogenous clock,[1]; higher doses,completely suppress the endogenous clock
same,dependence of circadian phenotype on CLOCK and BMAL1,[2],effecting the circadian phenotype through CLOCK and BMAL1
